Results on 6 molecules are retold here after ChEMBL document CHEMBL5352410, “Discovery of novel selenium-containing azole derivatives as antifungal agents by exploiting the hydrophobic cleft of CYP51” (Eur J Med Chem, 2022).

SMILES strings stand for the structures. Values after ≈ are worked out from the molar mass of the structure shown.

Holding throughout (type): functional
Test [1] concerns Candida albicans. Briefly: Antifungal activity against Candida albicans sc5314 by CLSI based broth microdilution method. For orientation: Broth dilution looks for growth in wells or tubes with falling amounts of substance.
Test [2] concerns Candida albicans. Briefly: Antifungal activity against Candida albicans by CLSI based broth microdilution method.
The test system of another test is Nakaseomyces glabratus. Briefly: Antifungal activity against Candida glabrata by CLSI based broth microdilution method.
Another test has as its system Candida parapsilosis. Description: Antifungal activity against Candida parapsilosis by CLSI based broth microdilution method. To be noted: Lodderomyces parapsilosis.
The next test concerns Pichia kudriavzevii. Description: Antifungal activity against Pichia kudriavzevii by CLSI based broth microdilution method.
Another test concerns [Candida] zeylanoides. Briefly: Antifungal activity against Candida zeylanoides by CLSI based broth microdilution method. To be noted: Dujonia zeylanoides.
In the next test the test system is Cryptococcus neoformans. Description: Antifungal activity against Cryptococcus neoformans by CLSI based broth microdilution method.
The next test relates to Aspergillus fumigatus. Description: Antifungal activity against Aspergillus fumigatus by CLSI based broth microdilution method.
In test [3] the test system is Candida albicans. Description: Antifungal activity against FCZ-resistant Candida albicans CaR by CLSI based broth microdilution method.
The subject of test [4] is Candida albicans. Description: Antifungal activity against FCZ-resistant Candida albicans 17# by CLSI based broth microdilution method.
Test [5] relates to Candida albicans. Description: Antifungal activity against FCZ-resistant Candida albicans 632 by CLSI based broth microdilution method.
Test [6] deals with Candida albicans. Briefly: Antifungal activity against FCZ-resistant Candida albicans 901 by CLSI based broth microdilution method.
In test [7] the test system is Candida albicans. Description: Antifungal activity against FCZ-resistant Candida albicans 904 by CLSI based broth microdilution method.
Test [8] concerns Candida albicans. Description: Fungicidal activity against Candida albicans.
Test [9] relates to Candida albicans. Briefly: Fungicidal activity against Candida albicans sc5314.
The subject of test [10] is Candida albicans. Description: Fungicidal activity against FCZ-resistant Candida albicans CaR.
The subject of test [11] is Candida albicans. Briefly: Fungicidal activity against FCZ-resistant Candida albicans 17#.
Test [12] has as its system Candida albicans. Briefly: Fungicidal activity against FCZ-resistant Candida albicans 632.
In test [13] the test system is Candida albicans. Briefly: Fungicidal activity against FCZ-resistant Candida albicans 901.
Test [14] has as its system Candida albicans. Description: Fungicidal activity against FCZ-resistant Candida albicans 904.

What is called MIC is the least concentration at which growth counts as inhibited. As a reminder, the MFC is the lowest tested concentration that kills the fungus rather than only halting it. A high value points to weaker fungicidal potency. `Clc1ccc(C(Cn2ccnc2)[Se]C(Cn2ccnc2)c2ccc(Cl)cc2Cl)c(Cl)c1` (configuration not stated): the MIC in the test on Candida albicans [1] worked out at 2 µg/mL (≈ 3.58 µM); with Candida albicans [2] it was 16 µg/mL (≈ 28.6 µM); against Nakaseomyces glabratus it was 64 µg/mL (≈ 114 µM); with Candida parapsilosis, 64 µg/mL (≈ 114 µM); against Pichia kudriavzevii, 128 µg/mL (≈ 229 µM); in test [Candida] zeylanoides, 8 µg/mL (≈ 14.3 µM). In addition, the MIC in the test on Cryptococcus neoformans was 64 µg/mL (≈ 114 µM); against Aspergillus fumigatus, greater than 64 µg/mL; in the test with Candida albicans [3] it was 2 µg/mL (≈ 3.58 µM); against Candida albicans [4], 2 µg/mL (≈ 3.58 µM); against Candida albicans [5], 16 µg/mL (≈ 28.6 µM); against Candida albicans [6] it was 64 µg/mL (≈ 114 µM). It took 16 µg/mL (≈ 28.6 µM) to inhibit growth against Candida albicans [7] (MIC). Moreover, the minimal fungicidal concentration (MFC) against Candida albicans [8] is greater than 64 µg/mL; with Candida albicans [9], 64 µg/mL (≈ 114 µM); with Candida albicans [10] it was greater than 64 µg/mL; in the test with Candida albicans [11], greater than 64 µg/mL; against Candida albicans [12], greater than 64 µg/mL; against Candida albicans [13], greater than 64 µg/mL. The molecule further gave an MFC against Candida albicans [14] of 32 µg/mL (≈ 57.2 µM).
On to `c1ccc(C(Cn2ccnc2)[Se][Se]C(Cn2ccnc2)c2ccccc2)cc1` (configuration not stated), for which the MIC with Candida albicans [3] was 2 µg/mL (≈ 4 µM); in the test with Candida albicans [4] it was greater than 64 µg/mL; against Candida albicans [5], 8 µg/mL (≈ 16 µM); with Candida albicans [6] it was 4 µg/mL (≈ 7.99 µM); against Candida albicans [7], 8 µg/mL (≈ 16 µM). Further, the minimum fungicidal concentration (MFC) with Candida albicans [8] was 64 µg/mL (≈ 128 µM); against Candida albicans [9], 16 µg/mL (≈ 32 µM); in the test with Candida albicans [10], greater than 64 µg/mL; against Candida albicans [11], greater than 64 µg/mL; against Candida albicans [12], 16 µg/mL (≈ 32 µM); in the test with Candida albicans [13], 8 µg/mL (≈ 16 µM). In the test with Candida albicans [14], this molecule came in with an MFC of 8 µg/mL (≈ 16 µM).
Consider `Fc1ccc(C(Cn2ccnc2)[Se][Se]C(Cn2ccnc2)c2ccc(F)cc2F)c(F)c1` (configuration not stated), for which the MIC against Candida albicans [3] was 4 µg/mL (≈ 6.99 µM); in the test with Candida albicans [4], 8 µg/mL (≈ 14 µM); against Candida albicans [5], 8 µg/mL (≈ 14 µM); in the test with Candida albicans [6], 4 µg/mL (≈ 6.99 µM); against Candida albicans [7], 8 µg/mL (≈ 14 µM). For the same molecule, the MFC in the test on Candida albicans [8] is 32 µg/mL (≈ 55.9 µM); against Candida albicans [9], 16 µg/mL (≈ 28 µM); in the test with Candida albicans [10], greater than 64 µg/mL; against Candida albicans [11], greater than 64 µg/mL; with Candida albicans [12] it was 16 µg/mL (≈ 28 µM); against Candida albicans [13], 8 µg/mL (≈ 14 µM). This molecule returned a minimum fungicidal concentration (MFC) in the test on Candida albicans [14] of 8 µg/mL (≈ 14 µM).
As to `Fc1ccc(C(Cn2ccnc2)[Se][Se]C(Cn2ccnc2)c2ccc(F)cc2)cc1` (configuration not stated), the minimum inhibitory concentration (MIC) against Candida albicans [3] is 4 µg/mL (≈ 7.46 µM); in the test on Candida albicans [4], 32 µg/mL (≈ 59.7 µM); against Candida albicans [5], 64 µg/mL (≈ 119 µM); with Candida albicans [6], 16 µg/mL (≈ 29.8 µM); with Candida albicans [7], 64 µg/mL (≈ 119 µM). The MFC is greater than 64 µg/mL in the test on Candida albicans [8]; greater than 64 µg/mL in the test with Candida albicans [9]; greater than 64 µg/mL against Candida albicans [10]; greater than 64 µg/mL in the test on Candida albicans [11]; greater than 64 µg/mL against Candida albicans [12]; 32 µg/mL (≈ 59.7 µM) with Candida albicans [13]. The MFC in the test with Candida albicans [14] was found to be 64 µg/mL (≈ 119 µM).
In the case of `Fc1ccc(C(Cn2cnnn2)[Se]C(Cn2cnnn2)c2ccc(F)cc2)cc1` (configuration not stated), the minimal inhibitory concentration (MIC) in the test on Candida albicans [1] was greater than 64 µg/mL; in the test on Candida albicans [2] it was greater than 64 µg/mL; in the test on Nakaseomyces glabratus, greater than 64 µg/mL; against Candida parapsilosis, greater than 64 µg/mL; against Pichia kudriavzevii it was greater than 64 µg/mL; in test [Candida] zeylanoides it was 32 µg/mL (≈ 69.4 µM). Also, the MIC in the test on Cryptococcus neoformans, in the test with Aspergillus fumigatus, against Candida albicans [3], against Candida albicans [4], in the test with Candida albicans [5] and with Candida albicans [6] was greater than 64 µg/mL in each case. In the test with Candida albicans [7], this molecule had an MIC greater than 64 µg/mL.
As for `Clc1ccc(C(Cn2ccnn2)[Se]C(Cn2ccnn2)c2ccc(Cl)cc2)cc1` (configuration not stated), the minimum inhibitory concentration (MIC) in the test on Candida albicans [1] was greater than 64 µg/mL; against Candida albicans [2], greater than 64 µg/mL; with Nakaseomyces glabratus it was 8 µg/mL (≈ 16.3 µM); in the test on Candida parapsilosis, greater than 64 µg/mL; with Pichia kudriavzevii, 32 µg/mL (≈ 65 µM); in [Candida] zeylanoides it was 64 µg/mL (≈ 130 µM). Besides, the minimal inhibitory concentration (MIC) against Cryptococcus neoformans, against Aspergillus fumigatus, against Candida albicans [3], in the test with Candida albicans [4], in the test with Candida albicans [5] and against Candida albicans [6] was greater than 64 µg/mL throughout. This molecule yielded an MIC in the test on Candida albicans [7] greater than 64 µg/mL.
